# Publication PMC3608651, “A Broad Profile of Co-Dominant Epitopes Shapes the Peripheral Mycobacterium tuberculosis Specific CD8+ T-Cell Immune Response in South African Patients with Active Tuberculosis” (PLoS ONE, 2013)
# Read-outs that look alike come from different tables or passages of the source.
# Legend:
# Assay type in all cases: binding
# [1] = molecular target: HLA-A*02:01 (Homo sapiens, UniProt P04439, D140Y/D185E/D98H/E176V/E277Q/G131W/G231S/I119V/I121R/I166T/I218V/L300P/L318F/N151K/N90K/P208A/P217A/Q86G/Q94H/R138H/R169H/T345S); conditions: plate-bound monomer 0.5 µg/ml, duplicated experiments, positive binder >40%
# [2] = molecular target: HLA-A*24:02 (Homo sapiens, UniProt P04439, D101N/D140Y/D185E/E176V/E190D/F33S/G103R/G107R/I119L/I121M/I306V/K335N/L105A/L180Q/L300P/N151K/N90K/Q86E/Q94H/R106L/R138H/R89G/T104I/T345S/V100E/W191G/Y123F); conditions: duplicated experiments, positive binder >40%
# [3] = molecular target: HLA-A*30:01 (Homo sapiens, UniProt P04439, D140H/D185E/E176W/F33S/G80R/H175R/K168Q/R138E/R41S); conditions: duplicated experiments, positive binder >40%
# [4] = molecular target: T1, HLA-A*30:02 (Homo sapiens, UniProt P04439, D101N/D140H/D185E/E176R/F33S/G80R/H175R/K168Q/Q94H/R138E/R41S/V100E); conditions: duplicated experiments, positive binder >40%
# [5] = molecular target: T2, HLA-A*68:01 (Homo sapiens, UniProt P04439, A269V/D185E/E176V/E277Q/E87N/F33Y/G231S/I121M/I166T/I218V/L180W/L300P/L318F/N151K/P208A/P217A/Q86R/R169H/T345S); conditions: duplicated experiments, positive binder >40%
# [6] = molecular target: T2, HLA-A*68:01
# [7] = molecular target: T2, HLA-A*68:01; conditions: time points 0-8 h
# [8] = molecular target: HLA-B*07:02 (Homo sapiens, UniProt P01889); conditions: percent relative the binding of positive control peptide […]; duplicated experiments; positive binder >40%
# [9] = molecular target: T3, HLA-B*58:01 (Homo sapiens, UniProt P01889, A329T/C349S/D201E/D98Y/E176V/E187L/E204Q/E69T/G107R/I218V/I90N/K202T/L105A/L119I/N104I/N87E/Q89R/Q94S/R106L/R155S/R180L/R86G/S101N/S121R/S35A/S48A/T118I/V127L/V306I/V36M/Y140S/Y91M); conditions: duplicated experiments, positive binder >40%
# [10] = molecular target: HLA-C*07:01 (Homo sapiens, UniProt P10321, K90N/S123Y); conditions: duplicated experiments, positive binder >40%
# [11] = molecular target: T1, HLA-A*30:02
# [12] = molecular target: T1, HLA-A*30:02; conditions: time points 0-8 h
# [13] = molecular target: T3, HLA-B*58:01
# [14] = molecular target: T3, HLA-B*58:01; conditions: time points 0-8 h
# [15] = percent relative the binding of positive control peptide […]
# [16] = percent relative the binding of positive control peptide FLPSDFFPSV
# [17] = percent relative the binding of positive control peptide RYLKDQQLL
# [18] = percent relative the binding of positive control peptide KTKDIVNGL
# [19] = percent relative the binding of positive control peptide KIQNFRVYY
# [20] = percent relative the binding of positive control peptide KTGGPIYKR
# [21] = peptide titrated 10−4 to 10−9 M
# [22] = percent relative the binding of positive control peptide IAMESIVIW
# [23] = percent relative the binding of positive control peptide KYFDEHYEY
Substance,"Bind A*02:01 [1, 15]","Bind A*24:02 [2, 15]","Bind A*30:01 [3, 15]","Bind A*30:02 [4, 15]","Bind A*68:01 [5, 15]",Aff A*68:01 (ED50) [6],O-rate A*68:01 (t1/2) [7],Bind B*07:02 [8],"Bind B*58:01 [9, 15]","Bind C*07:01 [10, 15]",other results
SSFYSDWYS,53%,0%,0%,72%,103%,1e-07 M,0.1 h,0%,0%,1%,
NGT HSWEYW,0%,42%,0%,83%,35%,,,4%,74%,3%,Aff A*30:02 (ED50) [11]: 1000 nM; O-rate A*30:02 (t1/2) [12]: 1.6 h; Aff B*58:01 (ED50) [13]: 4E -08 M; O-rate B*58:01 (t1/2) [14]: 1.9 h
EAAASAIQG [Rv3875_12–20],,,,,,,0.8 h,5%,,,"Bind A*02:01 [1, 16]: 0%; Bind A*24:02 [2, 17]: 0%; Bind A*30:01 [3, 18]: 0%; Bind A*30:02 [4, 19]: 0%; Bind A*68:01 [5, 20]: 59%; Aff A*68:01 (ED50) [6, 21]: 8e-07 M; Bind B*58:01 [9, 22]: 0%; Bind C*07:01 [10, 23]: 0%"
DW YSPACGK,10%,0%,11%,0%,136%,2E -07 M,0.6 h,0%,0%,0%,
AMGDAGGYK,31%,0%,28%,80%,94%,5e-07 M,3.2 h,8%,0%,0%,Aff A*30:02 (ED50) [11]: 700 nM; O-rate A*30:02 (t1/2) [12]: 1.6 h
MAMMARDTA [Rv0288_81–89],,,,,96%,5e-06 M,2.0 h,,23%,19%,
TMAMMARDT [Rv0288_80–88],,,,,47%,6e-05 M,2.7 h,,0%,0%,
EANTMAMMA [Rv0288_77–85],,,,,83%,0.0007 M,1.9 h,,0%,3%,
AVFNFPPNG,69%,23%,21%,101%,81%,8E -09 M,0.2 h,0%,33%,1%,Aff A*30:02 (ED50) [11]: 3000 nM; O-rate A*30:02 (t1/2) [12]: 0.3 h
WGAQLNAMK,7%,0%,0%,67%,153%,3E -07 M,2.4 h,0%,0%,5%,
ANTMAMMAR [Rv0288_78–86],,,,,147%,3e-06 M,2.4 h,,0%,12%,
LPQW LSANR,6%,26%,29%,0%,167%,6E -08 M,4.1 h,31%,0%,0%,
NTMAMMARD [Rv0288_79–87],,,,,67%,7e-05 M,2.3 h,,0%,0%,
ETFLTSELP,25%,2%,4%,0%,103%,7e-07 M,0.1 h,5%,16%,0%,
EAYQGVQQK [Rv3875_49–57],,,,,,,7.5 h,10%,,,"Bind A*02:01 [1, 16]: 0%; Bind A*24:02 [2, 17]: 0%; Bind A*30:01 [3, 18]: 0%; Bind A*30:02 [4, 19]: 0%; Bind A*68:01 [5, 20]: 74%; Aff A*68:01 (ED50) [6, 21]: 4e-08 M; Bind B*58:01 [9, 22]: 0%; Bind C*07:01 [10, 23]: 0%"
